We go through four compounds from patent US12128260B2, “Pathogen capture using active surface modification” (priority 2020, dated 2024).

The target in assay [1] is SARS-CoV-2 spike protein (Severe acute respiratory syndrome coronavirus 2, UniProt P0DTC2). It counts as binding.
Assay [2] concerns Human IgG. As to conditions: FIGS. 4A and 4B; all concentration levels that included IgG, starting at 1 μg/ml; compared with high-protein-binding ELISA plates.
In assay [3] the test system is IgG. Briefly: Model protein (IgG) capture on nanocoated facemask pieces, Gel-Code protein staining dye. The format is binding. As to conditions: FIG. 7, IgG incubated 30 minutes, PBS wash, colour change, relative to uncoated facemask. An excerpt:
FIG. 7 depicts the relative binding of a model protein to pieces of facemasks coated with a different one of three bifunctional silane chemicals as well as to uncoated had hydrophobic controls. With reference to FIG. 7, pairs of pieces of standard facemasks (Machimpex, catalogue #1005-544-988) were nanocoated with one of the various chemicals. One pair, shown at the far left, was left uncoated. […] IgG was used as a model for protein capture as it behaved similar to the full-length coronavirus spike protein in plate-binding assays and is likely to have similar activity to that of bacterial coat proteins. The IgG was applied to the facemask fabric and incubated for 30 minutes prior to washing in phosphate buffered saline (PBS). Detection of the captured protein after washing was performed by applying 200 μl Gel-Code protein staining dye (Thermo Fisher Scientific, catalogue #24590) directly to the materials and incubating for one hour. Color change indicating protein capture was documented by photography.

Regarding `CO[Si](C)(CCCNCCCN(C)C)OC` [CCH699020, 3-(N,N-dimethylaminopropyl)aminopropylmethyldimethoxysilane], the “relative binding of SARS-CoV-2 spike glycoprotein applied at different concentrations” value in assay [1] was “control high-protein-binding ELISA plate significantly outperformed the chemical coating”.

Take `CCO[Si](CCCNC(=O)/C=C\C(=O)O)(OCC)OCC` [CCH8845, triethoxysilylpropylmaleamic acid]: the “overall capability of binding the coronavirus spike protein” value in assay [1] was “bind about equally well as CCH9021, CCH4502, and CCH1053”.

Consider `CCO[Si](CCCNCCN)(OCC)OCC` [N-(2-aminoethyl)-3-aminopropyltriethoxysilane], for which the “relative binding of IgG applied at different concentrations” value in assay [2] is “significantly outperformed the high-protein-binding ELISA plates”.

For the compound `CCO[Si](CCCNCCN)(OCC)OCC` [CCH9021, N-(2-aminoethyl)-3-aminopropyltriethoxysilane], the “capture of model protein (IgG) onto facemask” value in assay [3] was “efficiently captured the protein onto facemask relative to the uncoated facemask”; in assay [3] (listed as NCT9021) it was “appears to have captured more efficiently”. Besides, in assay [1], the “relative binding of SARS-CoV-2 spike glycoprotein” value is on record as “slightly underperformed the high-protein-binding ELISA plate”.
